Reference: patent US8541607B2, “Disulfide, sulfide, sulfoxide, and sulfone derivatives of cyclic sugars and uses thereof” (Lacer, S.A., priority 2003, dated 2013)
Like-named read-outs stand apart in the source and are kept apart here.

What was measured:
[1] = tested on: arterial rings; test: Test of vasorelaxation on arterial rings contracted with phenylephrine; format: cell-based; conditions: read-out: EC50 (vasodilatation equal to 50% of the maximum tone)
Procedure: The method used in the assays is substantially the same as described in following references: • * Furchgot, R. F., “Methods in nitric oxide research”; Feelisch & Stamler, eds., John Wiley & Sons, Chichester, England, pp 567-581. • * Trongvanbichnam K., et al., Jpn. J. Pharmacol. 71 (1996); 167-173. • * Sales, E., at al., Eur. J. Pharmacol. 258 (1994); 47-55.
The different compounds are tested at 5 different concentrations, at a concentration range from 0.0001 to 10 mM, using from 6 to 9 arterial rings for each compound. The obtained results are compared to those from the isosorbide 5-mononitrate, which is used as reference product.
The results are shown in table 1 below and are provided as EC50 (effective concentration 50), which is the concentration of each of the tested, compounds yielding a vasodilatation equal to 50% of the maximum tone at which the artery ring has been contracted with 1 μM of Phenylephrine.

[2] = tested on: heart (AVP-induced coronary vasoconstriction); test: In vivo protection against ischemia-reperfusion damage in the heart (arginine-vasopressin induced S-wave depression); conditions: p.o.; for S-wave decrement: 1 h before AVP 0.3 U/kg, vehicle 46.2 ± 4.9
Procedure: Experiments were performed according to the model previously described by Hirata Y at al (Journal of Cardiovascular Pharmacology, 1998, 31: 322-326)
After a food fasting period of 6 hours, animals were divided into groups of at least 8 animals each. Doses of products were given by oral sounding 1 h before the ischemia induction. Animals were anaesthetized with pentobarbital (40 mg/kg, i.p.) and the standard limb lead II electrocardiogram was recorded to detect the S-wave depression. 0.3 U/kg arginine-vasopressin (AVP) (Sigma Chemicals, St Louis, Mo., USA) was injected into the carotid artery to induce vasoconstriction of small coronary arteries and increase in coronary resistance. In all the groups received AVP 60 min after, the test drug. In all groups, after AVP injection of 10 minutes ECG recording was performed.
The results are shown in table 16 and are expressed as S-wave decrements (μvolts).

[3] = tested on: Rats, left carotid artery thrombosis (FeCl3); test: In vivo antithrombotic effect, FeCl3 carotid artery thrombosis; design: species or system rat; conditions: single oral dose of 100 mg/Kg; no occlusion during 60 min after FeCl3 patch
Procedure: The method used is substantially the same as described by Kurz (Kurz K. D., et al., Thromb. Res. 1990, 60:269-280) and modified by Feuerstein (Feuerstein G. Z., et al., Artherioscler. Thromb. Vase. Biol. 1999, 19: 2554-25562).
Rats received a single oral dose of 100 mg/Kg of the compounds.
Forty-five minutes after dosing rats were anaesthetized with sodium pentobarbital (40 mg/kg, i.p.) and they were placed later dorsally on a heated (37° C.) surgical board.
The left carotid artery was isolated and a Parafilm 4 sheet (7×20 mm, American National Can) was placed under it. An electromagnetic sounding of flow (Transonic Systems Inc.) was placed on the artery to measure blood flow.
(§1) Sixty minutes after product administration, a paper patch saturated with FeCl3 solution (70%) was placed (and not removed for the whole duration of the experiment) on the left carotid artery downstream from the sounding of flow to initiate thrombosis. The blood flow was controlled during the 60 min later to the application of the patch in the artery.
The vessel was considered totally occluded by the thrombus formed when no blood flow was detected (0.0 ml/min). In this model, thrombus formation usually takes place within 15 to 20 minutes in non-treated animals.

[4] = tested on: platelets (Human Platelet Rich Plasma); test: In vitro inhibition of ADP-induced platelet aggregation; format: cell-based; conditions: submaximal ADP (1-4 μM), mean ± s.d.
Procedure: The method used in the assays is substantially the same as described in following reference: • * Sales, E., at al., Br. J. Pharmacol. 112 (1994); 1071-1076.
The compounds are tested at four different concentrations, using platelet rich plasma from not less than 6 different healthy human donors. The results obtained are compared to those from 5-isosorbide mononitrate, which is used as reference product.
The results are shown in table 2 and are expressed as IC50 (inhibitory concentration 50), which is the concentration of each of the tested compounds yielding an inhibition equal to 50% of the aggregation obtained with a submaximal concentration (1-4 μM) of ADP (a submaximal concentration of ADP is the minimal amount of ADP which produces the maximal aggregation).

[5] = tested on: LDL; test: Inhibition of LDL oxidation induced by haemin and H2O2 (conjugated dienes, 234 nm); format: biochemical, human; conditions: compounds at 10 μM; 2.5 μM haemin and 5 μM H2O2; mean ± s.e.m.
From the text: The method used in the assays to determine the effect of the compounds on LDL oxidation is substantially the same as described in the following references: • Sprenger T., et al., Chem. Phys. Lipids 1998; 91:39-52 • Lynch S. M., et al., Biochim. Biophys. Acta 2000; 1485:11-22 • Pedreño J., et al., Thromb. Res. 2000; 99: 51-60.
The method used in the assays to isolate LDL particles from fresh human plasma is substantially the same as described in Pedreño J., et al., Atherosclerosis 2001; 155: 99-112.
Oxidative modification of low-density lipoprotein (LDL) is currently believed to be a central event it the development of atherosclerotic cardiovascular disease. The exposition of LDL to globin-free haemin (the complex of ferric ion (Fe^3+) with protoporphyrin IX), derived from the haemoglobin in circulating erythrocytes, serves as a physiological source of pro-oxidant Fe^3+ capable to promoting LDL oxidation. The compounds were added in vitro to determine their inhibitory activity on LDL oxidation induced by haemin and H2O2. LDL at a final protein concentration of 0.2 mg/ml was incubated in the presence of 2.5 μM haemin and 5 μM H202. Oxidative modification of LDL particles was assessed by measurement of conjugated dienes. Experimental samples were incubated at 37° C. and the increase in absorbance at 234 nm was automatically recorded every 5 min for at least 5 h. The effect of compounds on the LDL oxidation induced by haemin was tested at 7 different concentrations using LDL preparations from 7 different healthy donors.

[6] = tested on: heparinized plasma (plasma lipoproteins); test: Inhibition of plasma oxidation induced by Cu2+ (absorbance 234 nm); format: biochemical; conditions: compounds at 10 μM; 50 μM CuSO4; mean ± s.e.m.
Procedure: The method used in the assays to determine the effect of compounds on the capacity of oxidation of the plasma is substantially the same as described in Spranger T. et al., Chem Phys Lipids 1998; 91: 39-52.
Lipoprotein oxidation induced in vitro in plasma is expected to represent a relevant model of the lipoprotein oxidation in the arterial wall. Oxidation of plasma lipoproteins was assessed as the capacity of oxidation of heparinized plasma and was measured by spectrophotometry as in increase in absorbance at 234 nm. The compounds were added in vitro to determine their inhibitory activity over the capacity of oxidation of plasma induced by Cu^2+ (CuSO4). Heparinized plasma was diluted with phosphate-buffered saline solution (PBS) containing 0.16 M NaCl, and the oxidation was started by 50 μM CuSO4. Experimental samples were incubated at 37° C. and the increase in absorbance at 234 nm was automatically recorded every 15 min for at least 12 h. The effect of compounds over the capacity of oxidation of plasma induced by Cu^2+ was tested at 7 different concentrations using heparinizaded plasma from 7 different healthy donors.

[7] = tested on: Rats, left carotid artery thrombosis (FeCl3); test: In vivo synergistic antithrombotic effect, FeCl3 carotid artery thrombosis, single drugs and combinations; design: species or system rat; conditions: for Rate of animals with thrombotic occlusion: control 1
Procedure: The method used is substantially the same as described by Kurz (Kurz K. D., at al., Thromb. Res. 1990, 60: 269-280) and modified by Feuerstein (Feuerstein G. Z., et al., Artherioscler, Thromb. Vasc. Biol. 1999, 19: 2554-25562). […]
Forty-five minutes after dosing administration, rats were anaesthetized with sodium pentobarbital (40 mg/kg, i.p.) and they were placed later dorsally on a heated (37° C.) surgical board.
The left carotid artery was isolated and a Parafilm M sheet (7×20 mm, American National Can) was placed under it. An electromagnetic sounding of flow (Transonic Systems Inc.) was placed on the artery to measure blood flow.
as §1
The vessel was considered totally occluded by the thrombus formed when no blood flow was detected (0.0 ml/min). In this model, occlusive thrombus formation usually takes place within 15 to 20 minutes in non-treated animals.
The fractional product concept was used to identify synergy between the compounds. In accordance with this concept, if we consider the full protection of the animal as:
[formula] where A is the rate of animals with thrombotic occlusion in treated group; and B is the rate of animals with thrombotic occlusion in the control group.
For two drugs that act of independent way:
[formula] where A1 is the rate of animals with thrombotic occlusion in the treatment group A1; A2 is the rate of animals with thrombotic occlusion in the treatment group A2; and B is the rate of animals with thrombotic occlusion in the control group
If the protection obtained with the combination of the drugs is higher than the fractional inhibition for two compounds acting independently then synergism is considered to occur.
The results are shown in table 14 and are expressed as rate of animals with thrombotic occlusion in each group.

[8] = tested on: HUVEC cells; test: In vitro protection against cytotoxicity induced by oxygen radicals (peroxynitrite), XTT method; format: cell-based, human; conditions: HUVEC pre-treated with 50 μM compound for one hour, then 800 μM peroxynitrite overnight
From the text: The method used is substantially the same as described by Caveda L., et al. (J. Clin. Invest. […]; 98: 886-893).
For the determination of the capacity to inhibit the cytotoxicity induced by oxygen radicals Human Umbilical Vein Endothelial Cells (HUVEC) were used. HUVEC were isolated and cultured in M199 and 20% FCS (Fetal Calf Serum).
Test XTT assay is based on […] by the metabolically active cells of the salt of tetrazolio XTT to form an orange product, the formazan dye formed is soluble and is directly quantified using an spectrophotometer.
HUVEC cells were cultivated until a sub-confluence status in a 96 well tissue culture plate and pre-treated with 50 μM of the compound for one hour. After that, cells were treated with 800 μM of peroxynitrite for an overnight.
After overnight incubation cells were incubated with the yellow XTT solution (final concentration 0.3 mg/ml) for 4 hours. After this incubation period, orange formazan solution was formed, which was spectrophotometrically quantified using an ELISA plate reader at 450 nm
The results are shown in table 15 and are expressed as percentage of death cells.

[9] = artery ring contracted with 1 μM Phenylephrine, mean ± s.d.
[10] = Acetyl salicylic acid 100 mg/Kg/day, oral, for 3 days
[11] = Clopidogrel 1.5 mg/Kg/day, oral for 3 days

## C[S@@+]([O-])[C@H]1CO[C@H]2[C@@H]1OC[C@H]2O[N+](=O)[O-] [(4), 2-[(R)-methylsulfinyl]isosorbide 5-mononitrate]
[1]; [9]
  EC50: 338 ± 10 µM
[2]; 20 mg/kg
  Protection of S-wave decrement: 21%
  S-wave decrement: 36.5 ± 11.6 μV
[2]; 100 mg/kg
  Protection of S-wave decrement: 87%
  S-wave decrement: 5.9 ± 3.9 μV
[3]
  % of animals fully protected: 80%
[4]
  IC50: 1000 ± 10 µM

## C[S@+]([O-])[C@H]1CO[C@H]2[C@@H]1OC[C@H]2O[N+](=O)[O-] [(4bis), 2-[(S)-methylsulfinyl]isosorbide 5-mononitrate]
[4]
  IC50: 850 ± 150 µM

## O=[N+]([O-])O[C@@H]1CO[C@H]2[C@@H]1OC[C@@H]2O [Isosorbide 5-mononitrate, reference compound]
[1]; [9]
  EC50: 920 ± 200 µM
[5]
  % of increment of lag phase with respect to control (LDL oxidation): 0%
[4]
  IC50: 2680 ± 330 µM
[6]
  % of increment of lag phase with respect to control (plasma oxidation): 0%

## CC(=O)Oc1ccccc1C(=O)O [Acetyl salicylic acid]
[7]; [10]
  % of animals protected: (50%)
  Rate of animals with thrombotic occlusion: 0.50

## O=NS[C@H]1CO[C@H]2[C@@H]1OC[C@H]2O[N+](=O)[O-] [(6), S-nitroso-2-thioisosorbide 5-mononitrate]
[1]; [9]
  EC50: 1.2 ± 0.1 µM
[4]
  IC50: 1.9 ± 0.5 µM

## CS[C@H]1CO[C@H]2[C@@H]1OC[C@H]2O[N+](=O)[O-] [(3), 2-methylthioisosorbide 5-mononitrate]
[1]; [9]
  EC50: 43 ± 6 µM
[3]
  % of animals fully protected: 100%
[8]
  % of death cells: 80%
[4]
  IC50: 410 ± 90 µM

## 2-thioisosorbide [(9)]
[1]; [9]
  EC50: 24 ± 5 µM
[2]; 20 mg/kg
  Protection of S-wave decrement: 64%
  S-wave decrement: 16.5 ± 9.8 μV
[2]; 100 mg/kg
  Protection of S-wave decrement: 79%
  S-wave decrement: 9.7 ± 4.6 μV

## O=[N+]([O-])O[C@@H]1CO[C@H]2[C@@H]1OC[C@@H]2SC1CCCCO1 (stereo partly drawn) [(7), 2-(tetrahydropyran-2-yl-thio)isosorbide 5-mononitrate]
[1]; [9]
  EC50: 50 ± 9 µM
[4]
  IC50: 580 ± 21 µM

## COC(=O)[C@H](c1ccccc1Cl)N1CCc2sccc2C1 [Clopidogrel]
[7]; [11]
  % of animals protected: (50%)
  Rate of animals with thrombotic occlusion: 0.50

## O=[N+]([O-])O[C@@H]1CO[C@H]2[C@@H]1OC[C@@H]2SS[C@H]1CO[C@H]2[C@@H]1OC[C@H]2O[N+](=O)[O-] [(2), 5,5′-dinitrato-2,2′-dithiodiisosorbide]
[1]
  EC50: 5.3 ± 1 µM
[8]
  % of death cells: 80%
[4]
  IC50: 10 ± 7 µM
[6]
  % of increment of lag phase with respect to control (plasma oxidation): 7 ± 1%
